According to patent US11464751B2, “Use of fluoroethylnormemantine for the prevention and treatment of anxiety” (REST THERAPEUTICS, priority 2017, dated 2022):

Tests used:
naive rats (Wistar) [1] = assay: Fear conditioning + extinction + stabilization (PTSD model); format: in vivo, rat; conditions: for Percentage of time of tetany (freezing) during the stabilization phase: 10 mg/kg
From the text: Several animal models have been developed to mimic the traumatic events that induce intense and recurrent fear symptoms characteristic of PTSD. • Pavlovian fear conditioning of the animals: This animal model consists of Pavlovian-type fear conditioning (Zovkic, Neuropsychopharmacology Reviews (2013) 38, 77-93): mice (or rats) are trained to associate exposure to danger (electric shock, etc.) with the presence of a specific cue or environment (sound cue for example). The memory of this association (danger-cue) is later tested by measuring tetany behavior (through fear) when the animal is re-exposed to the conditioning cue in the absence of real danger.
Again, the occurrence of symptoms of PTSD are assessed after a certain period of time, without exposure to the hazard, to simulate the long-term onset of PTSD pathology. • Fear extinction: After a fear conditioning as described above it can be of interest to apply a protocol to extinguish this fear. Classically, this phase is placed 24 hours after the conditioning phase.
The extinction protocols model the relearning of the normal (non-fear-motivated) response to the cue (sound) and are very useful in modeling PTSD. • Fear stabilization: It can be useful, to assess the performance of a treatment, to add a stabilization phase after the extinction phase, spaced 24 h apart. Typically, this phase puts the animals back under the extinction phase conditions. It then allows the detection of staggered performances of the treatments, but also of the resurgence of tetany (rebound effect).
In the following examples, the effects of memantine, propranolol and fluoroethylnormemantine (FENM, the subject of the present invention) are studied in naive rats (Wistar) subjected to various tests related to depression or anxiety and then compared.
The test substances are administered to rats intraperitoneally in a volume of 5 ml/kg, 30 minutes before the behavioral tests are performed.
The injected solutions contain either of the molecules in the form of one of their salts, a hydrochloride (memantine·HCl and FENM·HCl) for the nitrogen derivatives and as such for propranolol, at the concentrations indicated below in a mixture of 95% (NaCl 0.9% ww in water)/5% ethanol. In each experiment, the dose per kilogram is referenced.
The applicant used a fear conditioning test in which the clue (neutral conditional stimulus) is a sound, coupled with a danger (aversive unconditional stimulus) which is an electric shock delivered by the floor of the box. This conditioning is followed by a fear extinction phase with injection of the treatment solutions to be tested and then by a test phase itself. • Fear Conditioning Phase (FC): fear conditioning takes place in a standard conditioning box (context A, white box in Table 7) and the rats (8 per group) are subjected to 3 “sound-electroshock” pairs at times of 180 s, 381 s and 582 s after being placed in the box. Each sound lasts 20 s and each electroshock lasts 1 s with a current of 1 mA. • The fear extinction phase (Ext.) is conducted as follows: the rats are placed in a box similar to the one that will be used for the final test (context B, pink box in Table 7), for a 25-minute session. During this session, 24 presentations are made with the same sound as that used during the conditioning session (20 s each, 35 s apart). Of course, no electric shock is delivered, and the percentage of time of tetany (“freezing”) during the phase is recorded. • Stabilization phase: the day after the extinction phase, 30 minutes before the test phase, […] of 3 sounds (same sequence as used for conditioning), recording the percentage of time they remain still during this test phase. […]

naive rats (Wistar) [2] = conditions: 5 mg/kg, only after 7 days of treatment; cited from earlier work

Structure (SMILES)	Percentage of time of tetany (freezing) during the stabilization phase (naive rats (Wistar) [1]; Early treatment: one injection 30 minutes before the extinction phase)	Percentage of time of tetany (freezing) during the stabilization phase (naive rats (Wistar) [1]; Late treatment: one injection 30 minutes before the stabilization phase)	Percentage of time of tetany (freezing) during the stabilization phase (naive rats (Wistar) [1]; Protective effect: one injection 30 minutes before the conditioning phase)	tetany in the stabilization phase compared with control (naive rats (Wistar) [1]; administered at conditioning, early or late post-traumatic treatment)	tetany during the extinction phase (naive rats (Wistar) [1]; administered during the extinction phase, effect lost during the stabilization phase)	anxiolytic activity (light-dark box, for comparison) (naive rats (Wistar) [2])
CC(C)NCC(O)COc1cccc2ccccc12 (stereo not drawn) [Propranolol, propranolol, reference compound]	26%	29%	28%	does not differentiate from the control	reduces tetany	–
CNCCC(Oc1ccc(C(F)(F)F)cc1)c1ccccc1 (stereo not drawn) [fluoxetine]	–	–	–	–	–	anxiolytic activity
